Consider six molecules from US20080124274A1, “Compositions and methods for detecting and treating tumors containing acidic areas” (priority 2006, published 2008).

One data set deals with acidic areas of tumors. The settings on record: without corresponding reduction of pH in normal tissues; cited from earlier work.
Data set [1] is described as follows: Titration of the sodium salt with HCl in aqueous solution. The procedure:
Typically new structures that may be suitable as advanced pH-switch components are first assessed for their pKa value in normal saline. This entails preparing the sodium salt form of the structure and dissolving it at a concentration of 20 milliMolar in 15 ml of 0.15 Molar NaCl (deareated to remove CO2). […] A plot of pH versus volume of added HCl affords the effective pKa value. It is also desirable to carry out this same titration in methanol/water (1:1 by vol) in order to get an estimate of the pKa value independent of insolubility effects.

A further data set has as its system tumors. The settings on record: tumor-bearing mice; reduction of about 0.3 pH units in the tumors; cited from earlier work.
For data set [2] the following is noted: urine rendered basic; cited from earlier work.

Where “and” joins values, the source holds several entries; their conditions need not be identical. Equal values may be shown once.

With glucose and meta-iodobenzylguanidine, the “reduction of the pH in acidic areas of tumors” value with acidic areas of tumors is reported as at most 0.7 pH unit.

Consider `CCC[N+]1([O-])CCC(C(=O)O)CC1` (stereo not drawn) [structure iii in FIG. 16b, N-oxide of N-propylisonipocotic acid], for which the “minimum of the first derivative of the titration curve (pH)” value in data set [1] (sodium salt titrated in aqueous solution) is ~4.0 and ~5.6.

Take `CN(C)C(=O)C=CC(=O)O` [FIG. 14b]: the “mid-point of the transition between salt and acid (pKa value)” value in data set [1] (sodium salt titrated with HCl in aqueous solution) was “below 3.0”.

As for `N=C(N)NCc1cccc([131I])c1` [meta-iodobenzylguanidine, reference compound], in the data set on acidic areas of tumors, the “reduction of the pH in acidic areas of tumors” value is on record as “further reduced”.

For the molecule `O=C(O)CCCc1ccc(N(CCCl)CCCl)cc1` [Chlorambucil], the “improvement in tumor growth delay” value with tumors is reported as 1.7 fold.

For `CC(=O)Nc1nnc(S(N)(=O)=O)s1` [Acetazolamide], the “pH of the urine” value in data set [2] is at least 7.4.
